What was measured:
Experiment in all cases: relative viability (nuclei count vs DMSO), 5 days (fraction); higher = more cells survive
Pictilisib + Navitoclax = compound: CS(=O)(=O)N1CCN(Cc2cc3nc(-c4cccc5[nH]ncc45)nc(N4CCOCC4)c3s2)CC1 [Pictilisib] + CC1(C)CCC(c2ccc(Cl)cc2)=C(CN2CCN(c3ccc(C(=O)NS(=O)(=O)c4ccc(N[C@H](CCN5CCOCC5)CSc5ccccc5)c(S(=O)(=O)C(F)(F)F)c4)cc3)CC2)C1 [Navitoclax] (partner 0.5 µM)
Procedure, shortened: (§1)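 Lung cancer cell lines in 1536-well plates got either a single drug or a fixed anchor-drug dose together with five library-drug doses (not always all listed) in √10 steps, by pin tool, on the day after seeding. Nuclei were counted after 5 days, and relative viability is the treated-to-vehicle ratio of nuclei counts. Values are medians of duplicate plates.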

MK-2206 + Pictilisib = compound: NC1(c2ccc(-c3nc4ccn5c(=O)[nH]nc5c4cc3-c3ccccc3)cc2)CCC1 [MK-2206] + CS(=O)(=O)N1CCN(Cc2cc3nc(-c4cccc5[nH]ncc45)nc(N4CCOCC4)c3s2)CC1 [Pictilisib] (partner 1 µM)
Procedure, shortened: as §1

MK-2206 + Foretinib = compound: NC1(c2ccc(-c3nc4ccn5c(=O)[nH]nc5c4cc3-c3ccccc3)cc2)CCC1 [MK-2206] + COc1cc2c(Oc3ccc(NC(=O)C4(C(=O)Nc5ccc(F)cc5)CC4)cc3F)ccnc2cc1OCCCN1CCOCC1 [Foretinib] (partner 0.25 µM)
Procedure, shortened: as §1

MK-2206 + Crizotinib = compound: NC1(c2ccc(-c3nc4ccn5c(=O)[nH]nc5c4cc3-c3ccccc3)cc2)CCC1 [MK-2206] + C[C@@H](Oc1cc(-c2cnn(C3CCNCC3)c2)cnc1N)c1c(Cl)ccc(F)c1Cl [Crizotinib] (partner 1 µM)
Procedure, shortened: as §1

Pictilisib + Dasatinib = compound: CS(=O)(=O)N1CCN(Cc2cc3nc(-c4cccc5[nH]ncc45)nc(N4CCOCC4)c3s2)CC1 [Pictilisib] + Cc1nc(Nc2ncc(C(=O)Nc3c(C)cccc3Cl)s2)cc(N2CCN(CCO)CC2)n1 [Dasatinib] (partner 0.075 µM)
Procedure, shortened: as §1

UMC-11
relative viability (Pictilisib + Navitoclax; first compound 0.02 µM): 0.343
relative viability (Pictilisib + Navitoclax; first compound 0.06325 µM): 0.281
relative viability (Pictilisib + Navitoclax; first compound 0.6325 µM): 0.349
relative viability (Pictilisib + Navitoclax; first compound 2 µM): 0.281
relative viability (MK-2206 + Pictilisib; first compound 0.01 µM): 0.762
relative viability (MK-2206 + Pictilisib; first compound 0.03162 µM): 0.821
relative viability (MK-2206 + Pictilisib; first compound 0.3162 µM): 0.837
relative viability (MK-2206 + Pictilisib; first compound 1 µM): 0.616
relative viability (MK-2206 + Foretinib; first compound 0.01 µM): 1.08
relative viability (MK-2206 + Foretinib; first compound 0.03162 µM): 1.1
relative viability (MK-2206 + Foretinib; first compound 0.3162 µM): 1.16
relative viability (MK-2206 + Foretinib; first compound 1 µM): 1.05
relative viability (MK-2206 + Crizotinib; first compound 0.01 µM): 0.61
relative viability (MK-2206 + Crizotinib; first compound 0.03162 µM): 0.569
relative viability (MK-2206 + Crizotinib; first compound 0.3162 µM): 0.603
relative viability (MK-2206 + Crizotinib; first compound 1 µM): 0.707
relative viability (Pictilisib + Dasatinib; first compound 0.02 µM): 0.449
relative viability (Pictilisib + Dasatinib; first compound 0.06325 µM): 0.461
relative viability (Pictilisib + Dasatinib; first compound 0.6325 µM): 0.458
relative viability (Pictilisib + Dasatinib; first compound 2 µM): 0.515

From the supplement of paper PMC10307832
